pIC50: −log10 of the molar value. Read-outs that look alike come from different tables or passages of the source.
Columns and labels:
[1] = Chemical stability in simulated gastric fluid (SGF); type: physicochemical; settings: SGF without enzymes, pH 1,4; 10 μm; 2 hours at 37° C.; substance amount remaining
Protocol: (§1) 1) Determination of chemical stability in simulated intestinal fluid, simulated gastric fluid and human blood plasma.
(§2) SGF concentrate without enzymes, pH=1,4 (Sigma Ireland, cat #01651) was used as simulated gastric fluid. Initial candidate solution (10 mM in DMSO) was diluted with a SGF working solution to a concentration of 10 μm (test solution). The test solution was incubated in a dry block thermostat for 2 hours at 37° C. SIF concentrate without enzymes, pH=6.5 (Sigma Ireland, cat #55331) was used as simulated intestinal fluid. Initial candidate solution (10 mM in DMSO) was diluted with a SIF working solution to a concentration of 10 μm (test solution). The test solution was incubated in a dry block thermostat for 2 hours at 37° C. HPLC with Agilent 1200 liquid chromatography system (Agilent, USA) was employed to determine peak areas of the compounds in test samples, said peak areas corresponding to the initial test time (prior to incubation) and the final test time (after incubation in a dry block thermostat for 2 hours at 37° C.). We used gradient elution (1 mL/min flow rate). Substance amount in % in a sample after thermostatting was determined.
(§3) The stability of the compounds was estimated.

[2] = Chemical stability in simulated intestinal fluid (SIF); type: physicochemical; settings: SIF without enzymes, pH 6.5; 10 μm; 2 hours at 37° C.; substance amount remaining
Protocol: as §1, §2, §3

[3] = Chemical stability in human blood plasma; type: in vitro ADME; settings: pooled human blood plasma; 10 μm; 4 hours at 37° C.; substance amount remaining
Method in brief: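 Pooled plasma from ten healthy donors was spiked to 10 μM from a 10 mM DMSO stock and held 4 h at 37 °C. After acetonitrile protein precipitation, HPLC peak areas before and after incubation gave the percentage of compound remaining.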

WT EGFR (Wild-Type EGFR) = biological target: T1, WT EGFR (Wild-Type EGFR) (Homo sapiens, UniProt P00533); test: Inhibition of WT EGFR kinase activity (ADP-Glo); type: biochemical
T1 construct: purchased SignalChem
Method in brief: (§4)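 Recombinant WT or double-mutant EGFR was incubated with a solution of 0.5 mg/mL peptide substrate and 50 μM ATP for 180 minutes at 37° C. Kinase activity was detected by ADP-Glo luminescence. IC50 values came from a four-parameter logistic fit.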

[4] = biological target: T2, DM EGFR (DoubleMutantEGFR, L828R/T790M) (Homo sapiens, UniProt P00533, L858R/T790M); test: Inhibition of DM EGFR kinase activity (ADP-Glo); type: biochemical; settings: for pIC50: inhibition of kinase activity, EGFR DM (L828R/T790M); for SI, IC50(WT)/IC50(DM): selectivity index, kinase EGFR WT vs EGFR DM
T2 construct: purchased SignalChem
Method in brief: as §4

[5] = test system: A549 (lung adenocarcinoma, WT); test: Antiproliferative activity on A549 cells (Alamar Blue); type: cell-based; settings: Homo sapiens, antiproliferative test
Method in brief: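 Cells seeded at 5*10^3/well in RPMI-1640 with 2% FBS, attached 16-18 h at 37° C, then exposed to compounds (≤1% DMSO) for 72 h. Alamar Blue added for 3-5 h; fluorescence read at 540/590 nm. IC50 from four-parameter logistic fit.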

[6] = test system: H1975 (lung adenocarcinoma, DM, L828R/T790M); test: Antiproliferative activity on H1975 cells (Alamar Blue); type: cell-based; settings: for pIC50: Homo sapiens, NCI-H1975, H1975 cells; for SI IC50(A549)/IC50(DM): selectivity index, A549 vs H1975 cells
Method in brief: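 H1975 cells (15*10^3/well) attached 16-18 h in RPMI-1640 with 2% FBS, then exposed to compounds (≤1% DMSO final) for 72 h at 37 °C. Viability by Alamar Blue fluorescence (Ex 540/Em 590 nm) after 3-5 h; IC50 from four-parameter logistic fit.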

[7] = General cytotoxicity on HepG2 cells; type: cell-based; settings: human; general cytotoxicity, HepG2 cells, 72 hours, average of several tests
Method in brief: (§5)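 HepG2 cells seeded at 2*10^4 cells per well and compounds added in DMEM with 2% FBS for 72 h at 37 °C. Viability read with Alamar Blue and CC50 derived as for IC50. Therapeutic index taken as HepG2 CC50 over H1975 IC50.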

HepG2 cells = test: General cytotoxicity on HepG2 cells; type: cell-based; settings: therapeutic index, CC50 HepG2 / IC50 H1975
Method in brief: as §5

[8] = Enzyme stability in human liver S9 fractions; type: in vitro ADME; settings: 0.5 mg/mL pooled human liver S9 fractions; 10 μM compound; 37° C.; pH 7.4; read-out: Stability in liver S9 fractions, Clint
Method in brief: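 Compound at 10 μM was incubated at 37 °C with 0.5 mg/mL pooled human liver S9, 2 mM β-NAD and 4 mM MgCl2 in 0.1 M sodium phosphate, pH 7.4, then quenched with acetonitrile and analysed chromatographically. T½ and CLint were derived from the slope of log peak area versus time.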

[9] = test system: HCC827 (lung adenocarcinoma, SM, exon19delE746-A750); test: Antiproliferative activity on HCC827 cells (Alamar Blue); type: cell-based; settings: Homo sapiens, antiproliferative test
Protocol: Antiproliferative activity of EGFR inhibitors (Tables 15 and 16) was measured in cell-based bioassay on continuous epithelial cell cultures: A549 (lung adenocarcinoma, ATCC® CRM-CCL-185™—WT), HCC827 (lung adenocarcinoma, ATCC® CRL-2868™—SM (SingleMutantEGFR, exon19delE746-A750)) and H1975 (lung adenocarcinoma, ATCC® CRL-5908™—DM (DoubleMutantEGFR, L828R/T790M)) using cell viability reagent Alamar Blue (ThermoFisher, # DAL1100). Cells were cultured in 10% FBS-supplemented (Gibco, #16140071) RPMI-1640 (PanEco, S330p) for at least 1 passage after thawing, washed with PBS and passaged in 96-well culture plates (3599, Corning) with RPMI-1640 growth medium supplemented with 2% FBS in an amount of 5*10^3 cells/well for A549, 10*10^3 cells/well for HCC827 and 15*10^3 cells/well for H1975 in 100 μL, and incubated at 37° C. in an incubator (Thermo Forma, USA) under 5% of CO2 for 16-18 h for cell attachment.
The test compounds were dissolved in DMSO in the selected range of concentrations and transferred to RPMI-1640 medium (PanEco, S330p) supplemented with 2% FBS. After adding 50 μl of the prepared dilutions to the cells, the incubation mixture contained the final concentrations of the test substances and no more than 1% DMSO. The plates were Incubated at 37° C. for 72 h. After incubation, 15 μl of Alamar Blue vital dye (ThermoFisher, # DAL1100) was added to each well. The plates were shaken on an orbital shaker (Biosan, Latvia) and further incubated for 3-5 h in a CO2 incubator (Thermo Forma, USA). Number of living cells was estimated using a plate spectrophotometer Infinite M200Pro, (Tecan, Switzerland) measuring fluorescent signal at the excitation wavelength (λEx) of 540 nm and emission wavelength (λEm) of 590 nm.
IC50 was calculated using Magellan 7.2 software (Tecan, Switzerland) approximating experimental points by four-parameter logistic model with the optimization by Levenberg-Marquardt.

[10] = average values obtained in several tests, Table 16, read-out: H1975 (DM) IC50
[11] = antiproliferative test, Table 15, read-out: IC50 H1975 (DM)

Compound	Stability in SGF, % [1] [%]	Stability in SIF, % [2] [%]	Stability in blood plasma, % [3] [%]	pIC50 (WT EGFR (Wild-Type EGFR))	pIC50 [4]	SI, IC50(WT)/IC50(DM) [4]	pIC50 [5]	pIC50 [6, 10]	pIC50 [6, 11]	SI IC50(A549)/IC50(DM) [6]	CC50 at 72 h [7] [nM]	TI, CC50/IC50 (HepG2 cells)	Intrinsic clearance in human liver S9 fractions at 10 µM [8] [µL/min/mg]	pIC50 [9]
C=CC(=O)Nc1cc(Nc2nccc(C(=O)c3ccccc3[N+](=O)[O-])n2)c(OC)cc1N(C)CCN(C)C [EGFR_3365_36, N-(2-((2-(dimethylamino)ethyl)(methyl)amino)-4-methoxy-5-((4-(2-nitrobenzoyl)pyrimidin-2-yl)amino)phenyl)acrylamide]	100.0	100.0	98.5	6.44	7.72	19.05	4.13	6.74	6.74	402.37	36500	199		
C=CC(=O)Nc1cc(Nc2nccc(C(=O)c3ccc(C)cc3)n2)c(OC)cc1N(C)CCN(C)C [EGFR_3365_64, N-(2-((2-(dimethylamino)ethyl)(methyl)amino)-4-methoxy-5-((4-(4-methylbenzoyl)pyrimidin-2-yl)amino)phenyl)acrylamide]	100.0	100.0	87.2										16.6	
C=CC(=O)Nc1cc(Nc2nccc(C(=O)c3ccc(OC4CCCCC4)cc3)n2)c(OC)cc1N(C)CCN(C)C [EGFR_3365_67, N-(5-((4-(4-(cyclohexyloxy)benzoyl)pyrimidin-2-yl)amino)-2-((2-(dimethylamino)ethyl)(methyl)amino)-4-methoxyphenyl)acrylamide]			92.8	7.01	7.98	9.27	5.61	6.66	6.66	11	9460	43	18.7	7.58
C=CC(=O)Nc1cc(Nc2nccc(C(=O)c3ccc(OC(C)C)cc3OC(C)C)n2)c(OC)cc1N(C)CCN(C)C [EGFR_3365_71, N-(5-((4-(2,4-diisopropoxybenzoyl)pyrimidin-2-yl)amino)-2-((2-(dimethylamino)ethyl)(methyl)amino)-4-methoxyphenyl)acrylamide]	100.0	100.0	100.0											
C=CC(=O)Nc1cc(Nc2nccc(C(=O)c3ccc(OCC(C)C)cc3)n2)c(OC)cc1N(C)CCN(C)C [EGFR_3365_78, N-(2-((2-(dimethylamino)ethyl)(methyl)amino)-5-((4-(4-isobutoxybenzoyl)pyrimidin-2-yl)amino)-4-methoxyphenyl) acrylamide]	91.1	91.1	81.7											
C=CC(=O)Nc1cc(Nc2nccc(C(=O)c3ccc(-n4ccnc4)cc3)n2)c(OC)cc1N(C)CCN(C)C [EGFR_3365_86, N-(5-((4-(4-(1H-imidazol-1-yl)benzoyl)pyrimidin-2-yl)amino)-2-((2-(dimethylamino)ethyl) (methyl)amino)-4-methoxyphenyl)acrylamide]	99.7	99.4	100.0											
C=CC(=O)Nc1cc(Nc2nccc(C(=O)c3ccc(N4CCN(C)CC4)cc3OC)n2)c(OC)cc1N(C)CCN(C)C [EGFR_3365_120, N-(2-((2-(dimethylamino)ethyl)(methyl)amino)-4-methoxy-5-((4-(2-methoxy-4-(4-methylpiperazin-1-yl)benzoyl)pyrimidin-2-yl)amino)phenyl)acrylamide]			100.0	7.51	8.63	13.01	4.79	8.35	8.35	3644	29300	6514	3.8	8.28
C=CC(=O)Nc1cc(Nc2nccc(C(=O)c3ccc(N4CCC(N(C)C)CC4)cc3)n2)c(OC)cc1N(C)CCN(C)C [EGFR_3365_121a, N-(2-((2-(dimethylamino)ethyl)(methyl)amino)-5-((4-(4-(4-(dimethylamino)piperidin-1-yl)benzoyl)pyrimidin-2-yl)amino)-4-methoxyphenyl) acrylamide]			99.0	7.53	9.02	30.92	5.49	8.59	8.59	1284	11800	4649	2.1	7.87

Reference: US20200339544A1 (JOINT STOCK COMPANY "BIOCAD", priority 2017, published 2020)
